Converted amounts (≈) assume the structure as drawn.
tested on: S. aureus 29213; test: MIC by broth microdilution (NCCLS), S. aureus 29213; assay type: cell-based; settings: Staphylococcus aureus, strain S. aureus 29213, cation-adjusted Mueller-Hinton Broth, pH 7.2-7.3
Method: These assays have been performed following the description given in “Methods for dilution Antimicrobial Susceptibility Tests for Bacteria that Grow Aerobically, 4th ed.; Approved standard: NCCLS Document M7-A4; National Committee for Clinical Laboratory Standards: Villanova, Pa., USA, 1997”. Minimal inhibitory concentrations (MICs; mg/l) were determined in cation-adjusted Mueller-Hinton Broth (BBL) by a microdilution method following NCCLS guidelines (National Committee for Clinical Laboratory Standards. Methods for Dilution Antimicrobial Susceptibility). The pH of the test medium was 7.2-7.3.

Compared with `COc1ccc2nccc(CC(N)CNC[C@@H]3CN(c4ccc5c(c4)NC(=O)CS5)C(=O)O3)c2n1` (mixture of isomers) [Example 89, 6-((R)-5-{[(2RS)-2-amino-3-(6-methoxy-[1,5]naphthyridin-4-yl)-propylamino]-methyl}-2-oxo-oxazolidin-3-yl)-4H-benzo[1,4]thiazin-3-one], `COc1ccc2nccc(CC[C@@H](O)CC[C@@H]3CN(c4ccc5c(c4)NC(=O)CS5)C(=O)O3)c2n1` (racemic) [Example 122, 6-{(RS)-5-[(RS)-3-hydroxy-5-(6-methoxy-[1,5]naphthyridin-4-yl)-pentyl]-2-oxo-oxazolidin-3-yl}-4H-benzo[1,4]thiazin-3-one] is lower in MIC: 0.125 µg/mL for the first, at most 0.063 µg/mL for the second.

`COc1ccc2ncc(F)c(CN(CCCC3CN(c4ccc5c(c4)NC(=O)CS5)C(=O)O3)C[C@@H](O)CCl)c2n1` (mixture of isomers) [Example 152, 6-((RS)-5-{3-[((R)-3-chloro-2-hydroxy-propyl)-(3-fluoro-6-methoxy-[1,5]naphthyridin-4-ylmethyl)-amino]-propyl}-2-oxo-oxazolidin-3-yl)-4H-benzo[1,4]thiazin-3-one] and `COC(=O)CCN(CCCC1CN(c2ccc3c(c2)NC(=O)CS3)C(=O)O1)Cc1ccnc2ccc(OC)nc12` (racemic) [Example 171, rac-3-((6-methoxy-[1,5]naphthyridin-4-ylmethyl)-{3-[2-oxo-3-(3-oxo-3,4-dihydro-2H-benzo[1,4]thiazin-6-yl)-oxazolidin-5-yl]-propyl}-amino)-propionic acid methyl ester] cannot be ordered by MIC: at most 0.063 µg/mL for the first, at most 0.063 µg/mL for the second.

`COc1ccc2nccc(C(=O)CCCCC3CN(c4ccc5c(c4)OCCO5)C(=O)O3)c2n1` (racemic) [Example 63, rac-3-(2,3-dihydro-benzo[1,4]dioxin-6-yl)-5-[5-(6-methoxy-[1,5]naphthyridin-4-yl)-5-oxo-pentyl]-oxazolidin-2-one] and `COc1ccc2nccc(CCNCCC3CN(c4ccc5c(c4)OCCO5)C(=O)O3)c2n1` (racemic) [Example 72, (rac)-3-(2,3-dihydro-benzo[1,4]dioxin-6-yl)-5-{2-[2-(6-methoxy-[1,5]naphthyridin-4-yl)-ethylamino]-ethyl}-oxazolidin-2-one] cannot be ordered by MIC: at most 0.063 µg/mL for the first, at most 0.063 µg/mL for the second.

Going from `COc1cnc2cccc(CN(C)C(=O)CCC3CN(c4ccc5c(c4)OCCO5)C(=O)O3)c2n1` (racemic) [Example 110, rac-3-[3-(2,3-dihydro-benzo[1,4]dioxin-6-yl)-2-oxo-oxazolidin-5-yl]-N-(3-methoxy-quinoxalin-5-ylmethyl)-N-methyl-propionamide] to `COc1cnc2cccc([C@@H](O)CNCC[C@@H]3CN(c4ccc5c(c4)OCCO5)C(=O)O3)c2n1` (relative stereo) [Example 92, (R*)-3-(2,3-dihydro-benzo[1,4]dioxin-6-yl)-5-{2-[(R*)-2-hydroxy-2-(3-methoxy-quinoxalin-5-yl)-ethylamino]-ethyl}-oxazolidin-2-one], the MIC rises from at most 0.063 µg/mL to 0.125 µg/mL (≈ 0.268 µM).

`COc1ccc2nccc(CC[C@@H](N)CC[C@@H]3CN(c4ccc5c(c4)OCCO5)C(=O)O3)c2n1` (racemic) [Example 116, (RS)-5-[(RS)-3-amino-5-(6-methoxy-[1,5]naphthyridin-4-yl)-pentyl]-3-(2,3-dihydro-benzo[1,4]dioxin-6-yl)-oxazolidin-2-one] and `COc1ccc2nccc(CCC[C@@H](O)C[C@@H]3CN(c4ccc5c(c4)OCCO5)C(=O)O3)c2n1` (racemic) [Example 123, (RS)-3-(2,3-dihydro-benzo[1,4]dioxin-6-yl)-5-[(RS)-2-hydroxy-5-(6-methoxy-[1,5]naphthyridin-4-yl)-pentyl]oxazolidin-2-one] cannot be ordered by MIC: at most 0.063 µg/mL for the first, at most 0.063 µg/mL for the second.

Going from `COc1ccc2nccc(COCCCC3CN(c4ccc5c(c4)OCCO5)C(=O)O3)c2c1` (racemic) [Example 120, rac-3-(2,3-dihydro-benzo[1,4]dioxin-6-yl)-5-[3-(6-methoxy-quinolin-4-ylmethoxy)-propyl]-oxazolidin-2-one] to `COc1ccc2nccc(CCNC[C@@H](O)[C@H]3CN(c4ccc5c(c4)OCCO5)C(=O)O3)c2n1` (relative stereo) [Example 97, (R*)-3-(2,3-dihydro-benzo[1,4]dioxin-6-yl)-5-{(R*)-1-hydroxy-2-[2-(6-methoxy-[1,5]naphthyridin-4-yl)-ethylamino]-ethyl}-oxazolidin-2-one], the MIC falls from 0.125 µg/mL (≈ 0.277 µM) to at most 0.063 µg/mL.

`O=C1CSc2ccc(N3CC(CCCNCc4cccc5ccccc45)OC3=O)cc2N1` (racemic) [Example 155, rac-6-(5-{3-[(naphthalen-1-ylmethyl)-amino]-propyl}-2-oxo-oxazolidin-3-yl)-4H-benzo[1,4]thiazin-3-one] and `COc1cc2ccccc2c(CNCCCC2CN(c3ccc4c(c3)NC(=O)CS4)C(=O)O2)c1OC` (racemic) [Example 168, rac-6-(5-{3-[(2,3-dimethoxy-naphthalen-1-ylmethyl)-amino]-propyl}-2-oxo-oxazolidin-3-yl)-4H-benzo[1,4]thiazin-3-one] cannot be ordered by MIC: at most 0.063 µg/mL for the first, at most 0.063 µg/mL for the second.

Going from `COC(=O)c1ccc(CNCCCC2CN(c3ccc4c(c3)NC(=O)CS4)C(=O)O2)c2nc(OC)ccc12` (racemic) [Example 156, rac-2-methoxy-8-({3-[2-oxo-3-(3-oxo-3,4-dihydro-2H-benzo[1,4]thiazin-6-yl)-oxazolidin-5-yl]-propylamino}-methyl)-quinoline-5-carboxylic acid methyl ester] to `COCCOc1ccc(CNCCCC2CN(c3ccc4c(c3)NC(=O)CS4)C(=O)O2)c2nc(OC)cnc12` (racemic) [Example 157, rac-6-[5-(3-{[3-methoxy-8-(2-methoxy-ethoxy)-quinoxalin-5-ylmethyl]-amino}-propyl)-2-oxo-oxazolidin-3-yl]-4H-benzo[1,4]thiazin-3-one], the MIC rises from at most 0.063 µg/mL to 0.125 µg/mL (≈ 0.226 µM).

`COc1ccc2c(OC)ccc(CNCCCC3CN(c4ccc5c(c4)NC(=O)CS5)C(=O)O3)c2c1` (racemic) [Example 169, rac-6-(5-{3-[(4,7-dimethoxy-naphthalen-1-ylmethyl)-amino]-propyl}-2-oxo-oxazolidin-3-yl)-4H-benzo[1,4]thiazin-3-one] and `COc1ccc2nccc(CCN(C)C[C@@H](O)[C@H]3CN(c4ccc5c(c4)OCCO5)C(=O)O3)c2n1` (relative stereo) [Example 99, (R*)-3-(2,3-dihydro-benzo[1,4]dioxin-6-yl)-5-((R*)-1-hydroxy-2-{[2-(6-methoxy-[1,5]naphthyridin-4-yl)-ethyl]-methyl-amino}-ethyl)-oxazolidin-2-one] cannot be ordered by MIC: at most 0.063 µg/mL for the first, at most 0.063 µg/mL for the second.

same assay, conditions: strain S. aureus 29213, cation-adjusted Mueller-Hinton Broth, pH 7.2-7.3

“6-((RS)-5-{[(2R,3R)-2,3-dihydroxy-3-(6-methoxy-[1,5]naphthyridin-4-yl)-propylamino]-methyl}-2-oxo-oxazolidin-3-yl)-4H-benzo[1,4]thiazin-3-one and 6-((RS)-5-{[(2S,3S)-2,3-dihydroxy-3-(6-methoxy-[1,5]naphthyridin-4-yl)-propylamino]-methyl}-2-oxo-oxazolidin-3-yl)-4H-benzo[1,4]thiazin-3-one [Example 52]” was tested, and the “MIC S. aureus 29213” value was 0.25 µg/mL.

For `COc1ccc2ncc(F)c(CN(CCCC3CN(c4ccc5c(c4)NC(=O)CS5)C(=O)O3)C[C@@H](O)CN(C)C)c2n1` (mixture of isomers) [Example 153, 6-((RS)-5-{3-[((S)-3-dimethylamino-2-hydroxy-propyl)-(3-fluoro-6-methoxy-[1,5]naphthyridin-4-ylmethyl)-amino]-propyl}-2-oxo-oxazolidin-3-yl)-4H-1-benzo[1,4]thiazin-3-one], the “MIC S. aureus 29213” value was “≦0.063 mg/l”.
